Values quoted from earlier work, collected in patent publication US20040009220A1, “Rate-controlled beta blockers and process for forming same” (priority 2001, published 2004).

Legend:
[1] = in man

| plasma half life [1] | solubility in water | Compound |
| --- | --- | --- |
| three to seven |  | COCCc1ccc(OCC(O)CNC(C)C)cc1 (centres unmarked) [Metroprolol] |
|  | freely soluble in water | COCCc1ccc(OCC(O)CNC(C)C)cc1 (centres unmarked) [metoprolol succinate] |
